Data as given in patent US20100267561A1, “HERBICIDAL PYRIDAZINONE DERIVATIVES” (priority 2007, published 2010).

Legend:
Format in all cases: in vivo
rice (Oryza sativa) = assay: Test B flooded paddy test plant response
Outline: (§1)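 Step one: raise plants to 2 leaves. Step two: flood pots 3 cm over the soil and apply compound into the water, keeping this depth. Step three: after 13–15 greenhouse days, score visually versus controls, 0–100, where 100 means complete control.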

[1] = system: ducksalad (Heteranthera limosa); assay: Test B flooded paddy test plant response
Outline: as §1

[2] = system: johnsongrass (Sorghum halepense); assay: Test B pre-/postemergence plant response; conditions: for Johnsongrass plant response rating: 8 g ai/ha
Text: (§2) Seeds of plant species selected from blackgrass (Alopecurus myosuroides), downy bromegrass (Bromus tectorum), green foxtail (Setaria viridis), Italian ryegrass (Lolium multiflorum), wheat (Triticum aestivum), wild oat (Avena fatua), catchweed bedstraw (Galium aparine), bermudagrass (Cynodon dactylon), surinam grass (Brachiaria decumbens), cocklebur (Xanthium strumarium), corn (Zea mays), large crabgrass (Digitaria sanguinalis), woolly cupgrass (Eriochloa villosa), giant foxtail (Setaria faberii), goosegrass (Eleusine indica), johnsongrass (Sorghum halepense), kochia (Kochia scoparia), lambsquarters (Chenopodium album), morningglory (Ipomoea coccinea), eastern black (E.B.) nightshade (Solanum ptycanthum), yellow nutsedge (Cyperus esculentus), pigweed (Amaranthus retroflexus), common ragweed (Ambrosia elation), Russian thistle (Salsola iberica), soybean (Glycine max), common (oilseed) sunflower (Helianthus annuus), and velvetleaf (Abutilon theophrasti) were planted and treated preemergence with test chemicals formulated in a non-phytotoxic solvent mixture which included a surfactant.
(§3) At the same time, plants selected from these crop and weed species and also winter barley (Hordeum vulgare), canarygrass (Phalaris minor), chickweed (Stellaria media) and windgrass (Apera spica-venti) were treated with postemergence applications of some of the test chemicals formulated in the same manner. Plants ranged in height from 2 to 18 cm (1- to 4-leaf stage) for postemergence treatments.
(§4) Plant species in the flooded paddy test consisted of rice (Oryza sativa), umbrella sedge (Cyperus difformis), ducksalad (Heteranthera limosa) and barnyardgrass (Echinochloa crus-galli) grown to the 2-leaf stage for testing. At time of treatment, test pots were flooded to 3 cm above the soil surface, treated by application of test compounds directly to the paddy water, and then maintained at that water depth for the duration of the test. Treated plants and controls were maintained in a greenhouse for 13 to 15 days, after which time all species were compared to controls and visually evaluated. Plant response ratings, summarized in Table B, are based on a scale of 0 to 100 where 0 is no effect and 100 is complete control. A dash (-) response means no test result.

[3] = system: green foxtail (Setaria viridis); assay: Test B pre-/postemergence plant response; conditions: for Foxtail, Green plant response rating: 8 g ai/ha
Text: as §2, §3, §4

[4] = system: giant foxtail (Setaria faberii); assay: Test B pre-/postemergence plant response; conditions: for Foxtail, Giant plant response rating: 8 g ai/ha
Text: as §2, §3, §4

[5] = system: velvetleaf (Abutilon theophrasti); assay: Test B pre-/postemergence plant response; conditions: for Velvetleaf plant response rating: 8 g ai/ha
Text: as §2, §3, §4

[6] = system: pigweed (Amaranthus retroflexus); assay: Test B pre-/postemergence plant response; conditions: for Pigweed plant response rating: 8 g ai/ha
Text: as §2, §3, §4

[7] = system: common (oilseed) sunflower (Helianthus annuus); assay: Test B pre-/postemergence plant response; conditions: Preemergence
Text: as §2, §3, §4

[8] = system: common ragweed (Ambrosia elation); assay: Test B pre-/postemergence plant response; conditions: for Ragweed plant response rating: 8 g ai/ha
Text: as §2, §3, §4

[9] = system: eastern black (E.B.) nightshade (Solanum ptycanthum); assay: Test B pre-/postemergence plant response; conditions: Preemergence
Text: as §2, §3, §4

wild oat (Avena fatua) = assay: Test B pre-/postemergence plant response; conditions: for Oat, Wild plant response rating: 8 g ai/ha
Text: as §2, §3, §4

[10] = system: large crabgrass (Digitaria sanguinalis); assay: Test B pre-/postemergence plant response; conditions: for Crabgrass, Large plant response rating: 8 g ai/ha
Text: as §2, §3, §4

[11] = system: goosegrass (Eleusine indica); assay: Test B pre-/postemergence plant response; conditions: for Goosegrass plant response rating: 8 g ai/ha
Text: as §2, §3, §4

[12] = system: woolly cupgrass (Eriochloa villosa); assay: Test B pre-/postemergence plant response; conditions: for Cupgrass, Woolly plant response rating: 8 g ai/ha
Text: as §2, §3, §4

[13] = Flood (flooded paddy test), 62 g ai/ha, scale 0 to 100, 0 no effect, 100 complete control
[14] = Flood (flooded paddy test), 125 g ai/ha, scale 0 to 100, 0 no effect, 100 complete control
[15] = Flood (flooded paddy test), 250 g ai/ha, scale 0 to 100, 0 no effect, 100 complete control
[16] = Flood, 31 g ai/ha, scale 0 to 100
[17] = Postemergence, 16 g ai/ha, scale 0 to 100
[18] = Postemergence, 31 g ai/ha, scale 0 to 100, 0 no effect, 100 complete control
[19] = Postemergence, 62 g ai/ha, scale 0 to 100, 0 no effect, 100 complete control
[20] = Preemergence, 31 g ai/ha, 0 to 100 scale, 0 no effect, 100 complete control
[21] = Preemergence, 62 g ai/ha, scale 0 to 100
[22] = Preemergence, 16 g ai/ha, scale 0 to 100 (0 no effect, 100 complete control)
[23] = 16 g ai/ha, scale 0 to 100 (0 no effect, 100 complete control)
[24] = 31 g ai/ha, 0 to 100 scale, 0 no effect, 100 complete control

Cc1cc(-c2ccc(Cl)cc2)nn1-c1c(OS(C)(=O)=O)cnn(C)c1=O [Compound 36]
Plant response rating, Rice (rice (Oryza sativa); [13]): 0 | Plant response rating, Rice (rice (Oryza sativa); [14]): 0 | Plant response rating, Rice (rice (Oryza sativa); [15]): 0 | Plant response rating, Rice (rice (Oryza sativa); [16]): 0 | Plant response rating, Ducksalad [1, 13]: 0 | Plant response rating, Ducksalad [1, 14]: 0 | Plant response rating, Ducksalad [1, 15]: 0 | Plant response rating, Ducksalad [1, 16]: 0 | Johnsongrass plant response rating ([2]; postemergence, 0-100 scale): 0 | Plant response rating, Johnsongrass [2, 17]: 50 | Plant response rating, Johnsongrass [2, 18]: 95 | Plant response rating, Johnsongrass [2, 19]: 100 | Plant response rating, Johnsongrass [2, 20]: 40 | Plant response rating, Johnsongrass [2, 21]: 100 | Johnsongrass plant response rating ([2]; Preemergence, scale 0 to 100): 0 | Foxtail, Green plant response rating ([3]; postemergence, 0-100 scale): 0 | Plant response rating, Foxtail, Green [3, 17]: 50 | Plant response rating, Foxtail, Green [3, 18]: 60 | Plant response rating, Foxtail, Green [3, 19]: 70 | Plant response rating, Foxtail, Green [3, 22]: 100 | Plant response rating, Foxtail, Green [3, 20]: 100 | Plant response rating, Foxtail, Green [3, 21]: 100 | Foxtail, Green plant response rating ([3]; Preemergence, scale 0 to 100): 50 | Foxtail, Giant plant response rating ([4]; postemergence, 0-100 scale): 0 | Plant response rating, Foxtail, Giant [4, 17]: 35 | Plant response rating, Foxtail, Giant [4, 18]: 60 | Plant response rating, Foxtail, Giant [4, 19]: 60 | Plant response rating, Foxtail, Giant [4, 22]: 100 | Plant response rating, Foxtail, Giant [4, 20]: 100 | Plant response rating, Foxtail, Giant [4, 21]: 100 | Foxtail, Giant plant response rating ([4]; Preemergence, scale 0 to 100): 100 | Velvetleaf plant response rating ([5]; postemergence, 0-100 scale): 0 | Plant response rating, Velvetleaf [5, 17]: 0 | Plant response rating, Velvetleaf [5, 19]: 0 | Plant response rating, Velvetleaf [5, 22]: 0 | Plant response rating, Velvetleaf [5, 20]: 0 | Plant response rating, Velvetleaf [5, 21]: 0 | Velvetleaf plant response rating ([5]; Preemergence, scale 0 to 100): 0 | Pigweed plant response rating ([6]; postemergence, 0-100 scale): 0 | Plant response rating, Pigweed [6, 17]: 0 | Plant response rating, Pigweed [6, 18]: 0 | Plant response rating, Pigweed [6, 19]: 0 | Plant response rating, Pigweed [6, 22]: 0 | Plant response rating, Pigweed [6, 20]: 0 | Plant response rating, Pigweed [6, 21]: 0 | Pigweed plant response rating ([6]; Preemergence, scale 0 to 100): 0 | Plant response rating, Sunflower [7, 23]: 0 | Plant response rating, Sunflower [7, 24]: 0 | Plant response rating, Sunflower ([7]; 62 g ai/ha, scale 0 to 100): 0 | Sunflower plant response rating ([7]; 8 g ai/ha, scale 0 to 100): 0 | Ragweed plant response rating ([8]; postemergence, 0-100 scale): 0 | Plant response rating, Ragweed [8, 17]: 0 | Plant response rating, Ragweed [8, 18]: 0 | Plant response rating, Ragweed [8, 19]: 0 | Plant response rating, Ragweed [8, 22]: 0 | Plant response rating, Ragweed [8, 20]: 0 | Plant response rating, Ragweed [8, 21]: 0 | Ragweed plant response rating ([8]; Preemergence, scale 0 to 100): 0 | Plant response rating, Nightshade, E. B. [9, 23]: 0 | Plant response rating, Nightshade, E. B. [9, 24]: 0 | Plant response rating, Nightshade, E. B. ([9]; 62 g ai/ha, scale 0 to 100): 0 | Nightshade, E. B. plant response rating ([9]; 8 g ai/ha, scale 0 to 100): 0 | Oat, Wild plant response rating (wild oat (Avena fatua); postemergence, 0-100 scale): 0 | Plant response rating, Oat, Wild (wild oat (Avena fatua); [17]): 50 | Plant response rating, Oat, Wild (wild oat (Avena fatua); [18]): 60 | Plant response rating, Oat, Wild (wild oat (Avena fatua); [19]): 90 | Plant response rating, Oat, Wild (wild oat (Avena fatua); [22]): 50 | Plant response rating, Oat, Wild (wild oat (Avena fatua); [20]): 90 | Plant response rating, Oat, Wild (wild oat (Avena fatua); [21]): 95 | Oat, Wild plant response rating (wild oat (Avena fatua); Preemergence, scale 0 to 100): 0 | Crabgrass, Large plant response rating ([10]; postemergence, 0-100 scale): 50 | Plant response rating, Crabgrass, Large [10, 17]: 65 | Plant response rating, Crabgrass, Large [10, 18]: 90 | Plant response rating, Crabgrass, Large [10, 19]: 100 | Plant response rating, Crabgrass, Large [10, 22]: 98 | Plant response rating, Crabgrass, Large [10, 20]: 100 | Plant response rating, Crabgrass, Large [10, 21]: 100 | Crabgrass, Large plant response rating ([10]; Preemergence, scale 0 to 100): 98 | Goosegrass plant response rating ([11]; postemergence, 0-100 scale): 0 | Plant response rating, Goosegrass [11, 17]: 100 | Plant response rating, Goosegrass [11, 18]: 100 | Plant response rating, Goosegrass [11, 19]: 100 | Plant response rating, Goosegrass [11, 22]: 100 | Plant response rating, Goosegrass [11, 20]: 100 | Plant response rating, Goosegrass [11, 21]: 100 | Goosegrass plant response rating ([11]; Preemergence, scale 0 to 100): 80 | Cupgrass, Woolly plant response rating ([12]; postemergence, 0-100 scale): 85 | Plant response rating, Cupgrass, Woolly [12, 17]: 90 | Plant response rating, Cupgrass, Woolly [12, 18]: 95 | Plant response rating, Cupgrass, Woolly [12, 19]: 95 | Plant response rating, Cupgrass, Woolly [12, 22]: 85 | Plant response rating, Cupgrass, Woolly [12, 20]: 98 | Plant response rating, Cupgrass, Woolly [12, 21]: 100 | Cupgrass, Woolly plant response rating ([12]; Preemergence, scale 0 to 100): 85
